According to the supplement of paper PMC10307832:

What was measured:
Test in all cases: relative viability (nuclei count vs DMSO), 5 days (fraction); higher = more cells survive
[1] = system: HCC-15
Summary of the method: (§1)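 Lung cancer cell lines in 1536-well plates were dosed by pin tool the day after seeding, either with one drug alone or with a fixed anchor-drug dose plus five library-drug doses (not always all listed) in √10 steps. After 5 days, cells were fixed and their nuclei stained in one step (final 0.05% Triton X-100, 1% formaldehyde, 1 ug/ml Hoechst), then counted on 4× images. Relative viability is the nuclei count in treated wells divided by that in vehicle wells. Values are medians of duplicate plates.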

[2] = system: NCI-H1563
Summary of the method: as §1

[3] = system: COR-L23
Summary of the method: as §1

[4] = system: PC-3 [JPC-3]
Summary of the method: as §1

[5] = system: NCI-H2228
Summary of the method: as §1

[6] = system: RERF-LC-KJ
Summary of the method: as §1

[7] = system: EKVX
Summary of the method: as §1

[8] = system: NCI-H1734
Summary of the method: as §1

[9] = system: LK-2
Summary of the method: as §1

[10] = system: HCC-827
Summary of the method: as §1

[11] = system: PC-14
Summary of the method: as §1

[12] = system: CAL-12T
Summary of the method: as §1

[13] = system: SW 1573
Summary of the method: as §1

[14] = system: NCI-H1355
Summary of the method: as §1

[15] = system: NCI-H661
Summary of the method: as §1

[16] = system: ABC-1
Summary of the method: as §1

[17] = system: NCI-H520
Summary of the method: as §1

[18] = system: H3255
Summary of the method: as §1

[19] = system: SK-MES-1
Summary of the method: as §1

[20] = system: NCI-H2405
Summary of the method: as §1

[21] = system: NCI-H1437
Summary of the method: as §1

[22] = system: NCI-H322M
Summary of the method: as §1

[23] = system: NCI-H1650
Summary of the method: as §1

[24] = system: NCI-H1651
Summary of the method: as §1

For `COc1cc(N2CCC(C(N)=O)CC2)ccc1Nc1nc(N)c(Cl)c(Nc2ccccc2S(=O)(=O)C(C)C)n1` [HG-5-88-01] + C[C@@H](Oc1cc(-c2cnn(C3CCNCC3)c2)cnc1N)c1c(Cl)ccc(F)c1Cl [Crizotinib] (partner 1 µM), the relative viability ([1]; first compound 0.04 µM) was 0.898, the relative viability ([1]; first compound 0.1265 µM) was 0.775 and the relative viability ([1]; first compound 0.4 µM) was 0.779. The relative viability ([1]; first compound 1.265 µM) was 0.801, the relative viability ([1]; first compound 4 µM) was 0.77 and the relative viability ([2]; first compound 0.04 µM) was 0.917. For the same molecule, the relative viability ([2]; first compound 0.1265 µM) was 0.88, the relative viability ([2]; first compound 0.4 µM) was 0.832 and the relative viability ([2]; first compound 1.265 µM) was 0.806. For the same molecule, the relative viability ([2]; first compound 4 µM) was 0.854, the relative viability ([3]; first compound 0.04 µM) was 0.651 and the relative viability ([3]; first compound 0.1265 µM) was 0.588. It also gave a relative viability ([3]; first compound 0.4 µM) of 0.645, a relative viability ([3]; first compound 1.265 µM) of 0.584 and a relative viability ([3]; first compound 4 µM) of 0.389. The relative viability ([4]; first compound 0.04 µM) was 0.983, the relative viability ([4]; first compound 0.1265 µM) was 1.03 and the relative viability ([4]; first compound 0.4 µM) was 1.07. For the same molecule, the relative viability ([4]; first compound 1.265 µM) was 0.937, the relative viability ([4]; first compound 4 µM) was 0.64 and the relative viability ([5]; first compound 0.04 µM) was 0.677. The relative viability ([5]; first compound 0.1265 µM) was 0.464, the relative viability ([5]; first compound 0.4 µM) was 0.454 and the relative viability ([5]; first compound 1.265 µM) was 0.427. It also gave a relative viability ([5]; first compound 4 µM) of 0.307, a relative viability ([6]; first compound 0.04 µM) of 0.816 and a relative viability ([6]; first compound 0.1265 µM) of 0.816. For the same molecule, the relative viability ([6]; first compound 0.4 µM) was 0.81, the relative viability ([6]; first compound 1.265 µM) was 0.782 and the relative viability ([6]; first compound 4 µM) was 0.535. The relative viability ([7]; first compound 0.04 µM) was 0.989, the relative viability ([7]; first compound 0.1265 µM) was 0.93 and the relative viability ([7]; first compound 0.4 µM) was 0.892. It also gave a relative viability ([7]; first compound 4 µM) of 0.843, a relative viability ([8]; first compound 0.04 µM) of 0.71 and a relative viability ([8]; first compound 0.1265 µM) of 0.709. For the same molecule, the relative viability ([8]; first compound 0.4 µM) was 0.681, the relative viability ([8]; first compound 1.265 µM) was 0.497 and the relative viability ([8]; first compound 4 µM) was 0.64. The relative viability ([9]; first compound 0.04 µM) was 0.24, the relative viability ([9]; first compound 0.1265 µM) was 0.227 and the relative viability ([9]; first compound 0.4 µM) was 0.234. For the same molecule, the relative viability ([9]; first compound 1.265 µM) was 0.249, the relative viability ([9]; first compound 4 µM) was 0.21 and the relative viability ([10]; first compound 0.04 µM) was 0.946. It also gave a relative viability ([10]; first compound 0.1265 µM) of 0.917, a relative viability ([10]; first compound 0.4 µM) of 0.94 and a relative viability ([10]; first compound 1.265 µM) of 0.831. It also gave a relative viability ([10]; first compound 4 µM) of 0.392, a relative viability ([11]; first compound 0.04 µM) of 0.863 and a relative viability ([11]; first compound 0.1265 µM) of 0.972. The relative viability ([11]; first compound 0.4 µM) was 0.914, the relative viability ([11]; first compound 1.265 µM) was 0.783 and the relative viability ([11]; first compound 4 µM) was 0.238. It also gave a relative viability ([12]; first compound 0.04 µM) of 0.589, a relative viability ([12]; first compound 0.1265 µM) of 0.671 and a relative viability ([12]; first compound 0.4 µM) of 0.421. For the same molecule, the relative viability ([12]; first compound 1.265 µM) was 0.432, the relative viability ([12]; first compound 4 µM) was 0.183 and the relative viability ([13]; first compound 0.04 µM) was 0.806. It also gave a relative viability ([13]; first compound 0.1265 µM) of 0.848, a relative viability ([13]; first compound 0.4 µM) of 0.907 and a relative viability ([13]; first compound 1.265 µM) of 0.568. The relative viability ([13]; first compound 4 µM) was 0.475, the relative viability ([14]; first compound 0.04 µM) was 1.19 and the relative viability ([14]; first compound 0.1265 µM) was 1.05. It also gave a relative viability ([14]; first compound 0.4 µM) of 1.02, a relative viability ([14]; first compound 1.265 µM) of 0.983 and a relative viability ([14]; first compound 4 µM) of 0.972. For the same molecule, the relative viability ([15]; first compound 0.1265 µM) was 0.964, the relative viability ([15]; first compound 0.4 µM) was 1.1 and the relative viability ([15]; first compound 1.265 µM) was 0.777. The relative viability ([15]; first compound 4 µM) was 0.926, the relative viability ([16]; first compound 0.04 µM) was 1.15 and the relative viability ([16]; first compound 0.1265 µM) was 0.939. For the same molecule, the relative viability ([16]; first compound 0.4 µM) was 0.813, the relative viability ([16]; first compound 1.265 µM) was 0.606 and the relative viability ([16]; first compound 4 µM) was 0.43. The relative viability ([17]; first compound 0.04 µM) was 0.907, the relative viability ([17]; first compound 0.1265 µM) was 0.704 and the relative viability ([17]; first compound 0.4 µM) was 0.711. For the same molecule, the relative viability ([17]; first compound 1.265 µM) was 0.762, the relative viability ([17]; first compound 4 µM) was 0.663 and the relative viability ([18]; first compound 0.04 µM) was 0.844. The relative viability ([18]; first compound 0.1265 µM) was 0.949, the relative viability ([18]; first compound 0.4 µM) was 0.833 and the relative viability ([18]; first compound 4 µM) was 0.308. The relative viability ([19]; first compound 0.04 µM) was 0.96, the relative viability ([19]; first compound 0.1265 µM) was 0.988 and the relative viability ([19]; first compound 0.4 µM) was 1.01. For the same molecule, the relative viability ([19]; first compound 1.265 µM) was 0.978, the relative viability ([19]; first compound 4 µM) was 0.923 and the relative viability ([20]; first compound 0.04 µM) was 0.841. For the same molecule, the relative viability ([20]; first compound 0.1265 µM) was 0.821, the relative viability ([20]; first compound 0.4 µM) was 0.796 and the relative viability ([20]; first compound 1.265 µM) was 0.599. It also gave a relative viability ([20]; first compound 4 µM) of 0.901, a relative viability ([21]; first compound 0.04 µM) of 0.896 and a relative viability ([21]; first compound 0.1265 µM) of 0.927. It also gave a relative viability ([21]; first compound 0.4 µM) of 0.899, a relative viability ([21]; first compound 1.265 µM) of 0.822 and a relative viability ([21]; first compound 4 µM) of 1.03. It also gave a relative viability ([22]; first compound 0.04 µM) of 0.978, a relative viability ([22]; first compound 0.1265 µM) of 0.855 and a relative viability ([22]; first compound 0.4 µM) of 0.882. The relative viability ([22]; first compound 1.265 µM) was 0.687, the relative viability ([22]; first compound 4 µM) was 0.818 and the relative viability ([23]; first compound 0.04 µM) was 1.04. The relative viability ([23]; first compound 0.1265 µM) was 1.01, the relative viability ([23]; first compound 0.4 µM) was 0.948 and the relative viability ([23]; first compound 1.265 µM) was 0.817. For the same molecule, the relative viability ([23]; first compound 4 µM) was 0.373, the relative viability ([24]; first compound 0.04 µM) was 0.866 and the relative viability ([24]; first compound 0.1265 µM) was 0.828. It also gave a relative viability ([24]; first compound 0.4 µM) of 0.808, a relative viability ([24]; first compound 1.265 µM) of 0.713 and a relative viability ([24]; first compound 4 µM) of 0.942.
